Each structure is given as a SMILES string.

The target in experiment [1] is Macrophage metalloelastase (Homo sapiens, UniProt P39900). Briefly: MMP12 Inhibition Assay. As to conditions: pH 8; 25 °C. As to the method:
The synthesized compounds were assayed for the inhibitory activities against MMP-12 in 96-well microtiter plates using thiopeptolide as the substrate. MMP-12 was diluted in Assay buffer (50 mM Tris pH7.5, 0.05% Brij-35, 10 mM CaCl2, 1 mM DTNB) to a concentration of 0.007 U/µL. The MMP-12 solution (44 µL) was premixed with 1 µL of inhibitors dissolved in DMSO in a 96-well plate, and the mixture was incubated for 20 min at room temperature. Then, 5 µL of 1 mM MMP chromogenic substrate (thiopeptolide) was added to the mixture, and the reaction mixture was incubated for 30-80 min at 37 °C. Reaction was terminated by adding 7 µL of 0.2 M EDTA (pH 8.0). The intensity of the color developed by the digested substrate was measuredat 405 nm.

Experiment [2] concerns the target 72 kDa type IV collagenase (Homo sapiens, UniProt P08253). Briefly: MMP2 Inhibition Assay. As to conditions: pH 8.5; 25 °C. As to the method: The synthesized compounds were assayed for the inhibitory activities against MMP-2 in 96-well microtiter plates using succinylated gelatin as the substrate. The compound and enzyme were dissolved in sodium borate buffer (pH 8.5, 50 mM) and incubated at 37 °C for 30 min. The substrate was added and incubated at 37 °C for another 60 min. The 100% and blank groups were also carried out, in which the 100% group contained not compound and the blank group contained […]. Then, 0.03% picrylsulfonic acid solution was added and incubated at room temperature for additional 20 min. The resulting solutions were measured under 450 nm.

Macrophage metalloelastase, sequence (P39900 whole entry): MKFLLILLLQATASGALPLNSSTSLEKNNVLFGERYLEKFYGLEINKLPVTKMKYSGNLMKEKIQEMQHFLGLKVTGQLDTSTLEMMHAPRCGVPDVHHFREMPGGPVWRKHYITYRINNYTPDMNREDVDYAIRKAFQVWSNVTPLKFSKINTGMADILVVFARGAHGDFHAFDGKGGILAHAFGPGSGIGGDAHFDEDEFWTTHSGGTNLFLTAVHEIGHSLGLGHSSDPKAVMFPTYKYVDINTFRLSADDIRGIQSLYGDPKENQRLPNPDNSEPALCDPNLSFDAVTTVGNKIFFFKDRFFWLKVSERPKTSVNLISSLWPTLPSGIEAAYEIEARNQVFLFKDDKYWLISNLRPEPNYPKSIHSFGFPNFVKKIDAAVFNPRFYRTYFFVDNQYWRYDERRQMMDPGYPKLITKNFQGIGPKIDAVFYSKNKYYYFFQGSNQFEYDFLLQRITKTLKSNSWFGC
72 kDa type IV collagenase, sequence (P08253 whole entry): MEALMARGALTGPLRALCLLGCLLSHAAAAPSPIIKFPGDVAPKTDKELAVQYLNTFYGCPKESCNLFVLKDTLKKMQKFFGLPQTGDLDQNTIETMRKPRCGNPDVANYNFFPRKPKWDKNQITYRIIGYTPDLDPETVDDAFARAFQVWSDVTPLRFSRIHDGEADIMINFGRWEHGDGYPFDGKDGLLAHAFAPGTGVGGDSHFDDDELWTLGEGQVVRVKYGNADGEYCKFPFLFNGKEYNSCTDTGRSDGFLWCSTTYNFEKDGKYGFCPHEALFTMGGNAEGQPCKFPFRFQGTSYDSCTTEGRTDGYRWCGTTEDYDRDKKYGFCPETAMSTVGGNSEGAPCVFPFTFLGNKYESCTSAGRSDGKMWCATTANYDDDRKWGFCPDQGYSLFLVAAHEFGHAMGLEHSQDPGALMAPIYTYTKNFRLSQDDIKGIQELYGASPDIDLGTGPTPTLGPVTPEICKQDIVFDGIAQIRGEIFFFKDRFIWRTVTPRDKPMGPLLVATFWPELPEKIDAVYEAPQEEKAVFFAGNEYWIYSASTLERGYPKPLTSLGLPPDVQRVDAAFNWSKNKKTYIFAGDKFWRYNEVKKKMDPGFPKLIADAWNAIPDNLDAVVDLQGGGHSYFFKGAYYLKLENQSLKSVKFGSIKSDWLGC

Usually IC50 stands for the midpoint of a concentration-inhibition curve. Low values mean greater potency, high ones weaker potency. As for `Cn1c(C(=O)NNC(=S)Nc2ccccc2F)cc(Br)c1Br` [2-(1-Methyl-4,5-dibromo-1H-pyrrole-2-carbonyl)-N-(2-fluorophenyl)hydrazine carbothioamide (5n)], the IC50 is 43.1 µM in experiment [1] and 8 µM in experiment [2].
Turning to `COc1cc(NC(=S)NNC(=O)c2cc(Br)c(Br)n2C)cc(OC)c1OC` [2-(1-Methyl-4,5-dibromo-1H-pyrrole-2-carbonyl)-N-(3,4,5-trimethoxyphenyl) hydrazine carbothioamide (5t)], the results for the IC50 in experiment [1] and in experiment [2] were 23.8 µM and 19.2 µM, respectively.
For `Cn1c(C(=O)NNC(=O)Nc2ccco2)cc(Br)c1Br` [2-(1-Methyl-4,5-dibromo-1H-pyrrole-2-carbonyl-N-(furan-2-yl))hydrazine carboxamide (4s)], the IC50 in experiment [1] amounted to 84.2 µM; in experiment [2], 60.3 µM.
In the same order, the values of `O=C(NNC(=S)Nc1ccc(Cl)cc1)c1cc(Br)c(Br)[nH]1` [2-(4,5-Dibromo-1H-pyrrole-2-carbonyl)-N-(4-chlorophenyl)hydrazine carbothioamide (5e)] are 29 µM and 1.8 µM.
In the case of `O=C(NNC(=S)Nc1ccc([N+](=O)[O-])cc1)c1cc(Br)c(Br)[nH]1` [2-(4,5-Dibromo-1H-pyrrole-2-carbonyl)-N-(4-nitrophenyl)hydrazine carbothioamide (5c)], the IC50 is 42.1 µM in experiment [1] and 13.7 µM in experiment [2].

Source of the values: BindingDB's records for doi:10.1111/cbdd.12481 (University of Kwazulu-Nata, 2015).
